Measured values: patent publication US10125126B2, “N-cycloalkyl-N-[(heterocyclylphenyl)methylene]-(thio)carboxamide derivatives” (BAYER CROPSCIENCE AG, priority 2012, dated 2018)

What was measured:
Botrytis cinerea = assay: In vivo preventive test on Botrytis cinerea (grey mould); settings: gherkin plants, 4 to 5 days after contamination
Method: In Vivo Preventive Test on Botrytis cinerea (Grey Mould) […] Gherkin plants (“Vert petit de Paris” variety), sown in starter cups on a 50/50 peat soil pozzolana substrate and grown at 24° C., are treated at the Z11 cotyledon stage by spraying with the active ingredient prepared as described above. Plants, used as controls, are treated with the mixture of acetone/tween/DMSO/water not containing the active material. After 24 hours, the plants are contaminated by spraying the cotyledons with an aqueous suspension of cryopreserved Botrytis cinerea spores (50 000 spores per mL). The spores are suspended in a nutrient solution composed of 10 g/L of PDB, 50 g/L of D-Fructose, 2 g/L of NH4NO3 and 1 g/L of KH2PO4. The contaminated gherkin plants are incubated at 17° C. and at 90% relative humidity. Grading (% of efficacy) is carried out 4 to 5 days after the contamination, in comparison with the control plants.

[1] = log P by HPLC on a reversed-phase column (C 18), EEC Directive 79/831 Annex V.A8; format: physicochemical; settings: HPLC on reversed-phase column (C 18), 40° C., 0.1% aqueous formic acid and acetonitrile, linear gradient 10% to 90% acetonitrile
Method: In table 1, the log P values were determined in accordance with EEC Directive 79/831 Annex V.A8 by HPLC (High Performance Liquid Chromatography) on a reversed-phase column (C 18), using the method described below: Temperature: 40° C.; Mobile phases: 0.1% aqueous formic acid and acetonitrile; linear gradient from 10% acetonitrile to 90% acetonitrile. Calibration was carried out using unbranched alkan-2-ones (comprising 3 to 16 carbon atoms) with known log P values (determination of the log P values by the retention times using linear interpolation between two successive alkanones). lambda-max-values were determined using UV-spectra from 200 nm to 400 nm and the peak values of the chromatographic signals.

Puccinia recondita = assay: In vivo preventive test on Puccinia recondita (brown rust on wheat); settings: wheat plants, 12 days after contamination
Method: In Vivo Preventive Test on Puccinia recondita (Brown Rust on Wheat) […] Wheat plants (“Scipion” variety), sown in starter cups on a 50/50 peat soil pozzolana substrate and grown at 22° C., are treated at the 1 leaf stage (10 cm height) by spraying with the active ingredient prepared as described above. Plants, used as controls, are treated with the mixture of acetone/tween/DMSO/water not containing the active material. After 24 hours, the plants are contaminated by spraying the leaves with an aqueous suspension of Puccinia recondita spores (100 000 spores per mL). The spores are collected from an infected plant and are suspended in water containing 2.5 mL/L of Tween 80 at 10%. […] Grading (% of efficacy) is carried out 12 days after the contamination, in comparison with the control plants.

Uromyces appendiculatus = assay: In vivo preventive test on Uromyces appendiculatus (bean rust); settings: bean plants, 11 days after contamination
Method: In Vivo Preventive Test on Uromyces appendiculatus (Bean Rust) […] Bean plants (“Saxa” variety), sown in starter cups on a 50/50 peat soil pozzolana substrate and grown at 24° C., are treated at the 2 leaf stage (9 cm height) by spraying with the active ingredient prepared as described above. Plants, used as controls, are treated with the mixture of acetone/tween/DMSO/water not containing the active material. After 24 hours, the plants are contaminated by spraying the leaves with an aqueous suspension of Uromyces appendiculatus spores (150 000 spores per mL). The spores are collected from infected plants and are suspended in water containing 2.5 mL/L of Tween 80 at 10%. […] Grading (% of efficacy) is carried out 11 days after the contamination, in comparison with the control plants.

Pyrenophora teres = assay: In vivo preventive test on Pyrenophora teres (barley); settings: 100 ppm of active ingredient; barley plants; 14 days after contamination
Method: In Vivo Preventive Test on Pyrenophora teres (Barley) […] Barley plants (“Plaisant” variety), sown in starter cups on a 50/50 peat soil pozzolana substrate and grown at 22° C., are treated at the 1 leaf stage (10 cm height) by spraying with the active ingredient prepared as described above. Plants, used as controls, are treated with the mixture of acetone/tween/DMSO/water not containing the active material. After 24 hours, the plants are contaminated by spraying the leaves with an aqueous suspension of Pyrenophora teres spores (12 000 spores per mL). The spores are collected from a 12-day-old culture. […] Grading (% of efficacy) is carried out 14 days after the contamination, in comparison with the control plants.

Sphaerotheca fuliginea = assay: In vivo preventive test on Sphaerotheca fuliginea (powdery mildew on cucurbits); settings: gherkin plants, 12 days after contamination
Method: In Vivo Preventive Test on Sphaerotheca fuliginea (Powdery Mildew on Cucurbits) […] Gherkin plants (“Vert petit de Paris” variety), sown in starter cups on a 50/50 peat soil-pozzolana substrate and grown at 24° C., are treated at the Z11 cotyledon stage by spraying with the active ingredient prepared as described above. Plants, used as controls, are treated with the mixture of acetone/tween/DMSO/water not containing the active material. After 24 hours, the plants are contaminated by spraying the cotyledons with an aqueous suspension of Sphaerotheca fuliginea spores (100 000 spores per mL). The spores are collected from infected plants. […] Grading (% of efficacy) is carried out 12 days after the contamination, in comparison with the control plants.

Septoria tritici = assay: In vivo preventive test on Septoria tritici (wheat); settings: wheat plants, 24 days after contamination
Method: In Vivo Preventive Test on Septoria tritici (Wheat) […] Wheat plants (“Scipion” variety), sown in starter cups on a 50/50 peat soil pozzolana substrate and grown at 22° C., are treated at the 1 leaf stage (10 cm height) by spraying with the active ingredient prepared as described above. Plants, used as controls, are treated with the mixture of acetone/tween/DMSO/water not containing the active material. After 24 hours, the plants are contaminated by spraying the leaves with an aqueous suspension of cryopreserved Septoria tritici spores (500 000 spores per mL). The contaminated wheat plants are incubated for 72 hours at 18° C. and at 100% relative humidity, and then for 21 days at 90% relative humidity. Grading (% of efficacy) is carried out 24 days after the contamination, in comparison with the control plants.

Compound | Efficacy (Botrytis cinerea; 100 ppm of active ingredient) | logP [1] | Efficacy (Puccinia recondita; 100 ppm of active ingredient) | Efficacy (Uromyces appendiculatus; 100 ppm of active ingredient) | Efficacy (Pyrenophora teres) | Efficacy (Botrytis cinerea; 500 ppm of active ingredient) | Efficacy (Sphaerotheca fuliginea; 500 ppm of active ingredient) | Efficacy (Septoria tritici; 500 ppm of active ingredient) | Efficacy (Uromyces appendiculatus; 500 ppm of active ingredient) | Efficacy (Puccinia recondita; 500 ppm of active ingredient) | Efficacy (Sphaerotheca fuliginea; 100 ppm of active ingredient) | Efficacy (Septoria tritici; 100 ppm of active ingredient)
Cn1cc(C(=O)N(Cc2ccccc2-c2ccco2)C2CC2)c(C(F)F)n1 [I.31] | 81% | 2.96 | – | – | – | – | – | – | – | – | – | –
Cn1nc(C(F)F)c(C(=O)N(Cc2ccccc2-c2ccco2)C2CC2)c1F [I.32] | 94% | 3.31 | 88% | 74% | – | – | – | – | – | – | – | –
Cn1nc(C(F)F)c(C(=O)N(Cc2cc(-c3ccco3)ccc2Cl)C2CC2)c1Cl [I.35] | 94% | 4.01 | – | – | – | – | – | – | – | – | – | –
Cn1cc(C(=O)N(Cc2cc(-c3ccco3)ccc2Cl)C2CC2)c(C(F)F)n1 [I.36] | – | 3.44 | – | – | 71% | – | – | – | – | – | – | –
Cn1ccc(-c2ccccc2CN(C(=O)c2c(C(F)F)nn(C)c2F)C2CC2)c1 [I.49] | – | 3.25 | – | – | – | 99% | 78% | 96% | 100% | – | – | –
Cn1cc(-c2ccc(Cl)cc2CN(C(=O)c2c(C(F)F)nn(C)c2F)C2CC2)cn1 [I.55] | – | 2.80 | – | – | – | – | 100% | 95% | 99% | 95% | – | –
Cn1cc(-c2ccc(F)cc2CN(C(=O)c2c(C(F)F)nn(C)c2F)C2CC2)cn1 [I.56] | – | 2.50 | – | – | – | – | 98% | 100% | 85% | 78% | – | –
Cc1ccc(-c2cnn(C)c2)c(CN(C(=O)c2c(C(F)F)nn(C)c2Cl)C2CC2)c1 [I.57] | – | 2.71 | – | – | 79% | – | – | – | – | – | – | –
Cc1ccc(-c2cnn(C)c2)c(CN(C(=O)c2cn(C)nc2C(F)F)C2CC2)c1 [I.59] | 81% | 2.37 | – | – | – | – | – | – | – | – | – | –
Cn1nc(C(F)F)c(C(=O)N(Cc2cc(Cl)ccc2-c2ccsc2)C2CC2)c1F [I.66] | – | 3.99 | – | – | – | 91% | 95% | – | 100% | 94% | – | –
Cn1nc(C(F)F)c(C(=O)N(Cc2ccccc2-c2cccs2)C2CC2)c1F [I.69] | – | 3.64 | – | – | – | – | 100% | 97% | 100% | 94% | – | –
Cn1cc(C(=O)N(Cc2ccccc2-c2ccsc2)C2CC2)c(C(F)F)n1 [I.70] | – | 3.17 | – | – | – | – | 85% | 86% | 96% | 78% | – | –
Cn1nc(C(F)F)c(C(=S)N(Cc2ccccc2-c2cccs2)C2CC2)c1F [I.75] | – | 4.29 | – | – | – | 100% | 90% | 86% | 100% | 94% | – | –
Cn1nc(C(F)F)c(C(=O)N(Cc2ccccc2-c2cccs2)C2CC2)c1Cl [I.78] | – | 3.78 | – | – | – | 78% | – | 83% | 85% | – | – | –
CC(c1ccccc1-c1ccsc1)N(C(=O)c1c(C(F)F)nn(C)c1F)C1CC1 (stereo not drawn) [I.82] | 97% | 3.78 | 81% | – | – | – | – | – | – | – | 98% | 97%
Cn1cc(C(=O)N(Cc2cc(-c3cccs3)ccc2Cl)C2CC2)c(C(F)F)n1 [I.84] | 100% | 3.68 | – | – | – | – | – | – | – | – | – | 71%
Cc1ccc(-c2cscc2C)c(CN(C(=O)c2c(C(F)F)nn(C)c2F)C2CC2)c1 [I.108] | 100% | 4.25 | – | – | – | – | – | – | – | – | 75% | 86%
COc1ccsc1-c1cc(F)ccc1CN(C(=O)c1c(C(F)F)nn(C)c1F)C1CC1 [I.122] | – | 3.70 | – | – | – | 100% | 100% | 100% | 100% | 98% | – | –
COc1ccsc1-c1cc(Cl)ccc1CN(C(=O)c1c(C(F)F)nn(C)c1F)C1CC1 [I.123] | – | 4.14 | – | – | – | 100% | 100% | 94% | 99% | 94% | – | –
COc1ccsc1-c1ccc(C)cc1CN(C(=O)c1c(C(F)F)nn(C)c1F)C1CC1 [I.125] | 78% | 3.83 | 81% | – | – | – | – | – | – | – | 95% | 96%
Cn1nc(C(F)F)c(C(=O)N(Cc2ccccc2-c2ccc(Cl)s2)C2CC2)c1Cl [I.141] | – | 4.51 | – | – | – | 90% | – | 83% | – | 86% | – | –
Cn1cc(C(=O)N(Cc2cc(-c3ccc(Cl)s3)ccc2Cl)C2CC2)c(C(F)F)n1 [I.144] | – | 4.41 | – | – | – | 98% | – | 100% | 94% | 75% | – | –
Cn1nc(C(F)F)c(C(=O)N(Cc2cc(-c3ccc(Cl)s3)ccc2Cl)C2CC2)c1Cl [I.145] | 100% | 5.06 | – | – | – | – | – | 94% | 100% | 88% | – | –
Cn1cc(C(=O)N(Cc2cc(Cl)ccc2-c2ccc(Cl)s2)C2CC2)c(C(F)F)c1 [I.146] | – | 4.85 | – | – | – | 100% | – | – | – | – | – | –
Cc1ccc(-c2ccsc2Cl)c(CN(C(=O)c2c(C(F)F)nn(C)c2F)C2CC2)c1 [I.150] | 90% | 4.26 | 81% | – | – | – | – | – | – | – | 100% | 80%
Cn1nc(C(F)F)c(C(=O)N(Cc2ccccc2-c2csc3ccccc23)C2CC2)c1F [I.156] | – | 4.27 | – | – | – | 97% | 95% | 96% | – | 81% | – | –
Cn1nc(C(F)F)c(C(=O)N(Cc2ccc(F)cc2-c2csc3ccccc23)C2CC2)c1F [I.158] | – | 4.44 | – | – | – | 100% | 100% | 98% | 91% | 81% | – | –
Cn1nc(C(F)F)c(C(=O)N(Cc2ccccc2Oc2nc(Cl)cc(Cl)n2)C2CC2)c1F [I.168] | – | 3.50 | – | – | – | – | 83% | 80% | 99% | 81% | – | –
